Here are results for 4 molecules from US11185548B2, “Inhibitors of cytochrome P450 family 7 subfamily B member 1 (CYP7B1) for use in treating diseases” (HELMHOLTZ ZENTRUM MÜNCHEN—DEUTSCHES FORSCHUNGSZENTRUM FÜR …, priority 2016, dated 2021).

“Also recorded” adds a separate entry of the source.

Data set [1] concerns IgM cross-linked splenic B cells. As to the kind of experiment: ex vivo B cell migration assay towards medium from CSE treated airways. It is filed as cell-based, mouse. The settings on record: 10% CSE. As for the experimental part:
(§1) Middle and distal airways from C57BL/6J and Ch25h^−/− mice were isolated and incubated ex vivo as described by Yildirim et al. (Eur Respir J 32, 694-704 (2008)). Briefly, after sacrifice by a ketamine-xylazine over dose, the trachea was cannulated, the lungs removed from the thorax and infused with 1% low-melting agarose dissolved in 1:1 Ham's F12 nutrient medium (Sigma-Aldrich) and distilled water (Gibco, Life Technologies). Airways were dissected under a microscope (Zeiss) from the left lung after the agarose had solidified on ice for 30 min. The isolated airways were washed and cultured in airway epithelial cell medium (PromoCell) at 37° C., 5% CO2.
B cells were purified from the spleens of C57BL/6J mice by negative selection (B cell Isolation Kit, mouse, Miltenyi Biotec). For the migration assay, primary mouse airways were isolated 1 day prior, treated with 10% cigarette smoke extract (CSE) in airway epithelial cell culture medium or culture medium alone for 24 h and at the same time to inhibit Cyp7b1, clotrimazole was also diluted with culture medium to a final concentration of 1 μM for 1 h prior to the migration assay. […] The supernatants were transferred as conditioned medium to the lower well of 24-well transwell plates (Permeable Polycarbonate Membrane Inserts, Corning, Fisher Scientific), for inducing B cell migration, while the airway samples were snap frozen in liquid nitrogen for RNA isolation. Freshly isolated B cells at 2.5×10^6/ml in 100 μl were activated by unconjugated AffiniPure F(ab′)2 Fragment Goat anti-mouse IgM, μchain specific antibody (1.3 μg/ml, 115-006-020, Jackson Immunoresearch Laboratories) for 1 hr at 37° C. in 5.0 μm pore sized transwell inserts (Permeable Polycarbonate Membrane Inserts, Corning, Fisher Scientific). Transwell inserts were then placed into the wells of conditioned medium and incubated for 3 hr at 37° C. Migrated B cells were collected and counted by Neubauer Chamber and reported as percentage of input.

Data set [2] concerns Tnf expression. As to the kind of experiment: gene expression after 10% CSE + LPS stimulation: Tnf. The class given is cell-based, mouse. The settings on record: 10% CSE + 10 μg/mL LPS. As for the experimental part:
(§2) The cells were incubated for 24h at 37° C., 5% CO2, in a 24 well-plate with or without 10% cigarette smoke extract (CSE, 10%)+lipopolysaccharide (LPS, 10 μg/mL), supplemented or not with the 18 CYP7B1 inhibitors (0.3 and 1 μM). B cells were purified from the spleens of C57BL/6J mice by negative selection (B cell Isolation Kit, mouse, Miltenyi Biotec). Freshly isolated B cells at 2.0×10^6/mL in 100 μL were activated by unconjugated AffiniPure F(ab′)2 Fragment Goat anti-mouse IgM, μchain specific antibody (10 μg/mL, 115-006-020, Jackson Immunoresearch Laboratories) for 1 hr at 37° C. in 5.0 μm pore sized transwell inserts (Permeable Polycarbonate Membrane Inserts, Corning, Fisher Scientific). Migrated B cells were collected, and counted by fluorescence-activated cell sorting (FACS) (Trucount tubes, BD Biosciences).
(§3) 10 ng RNA was reverse transcribed using Random Hexamers and MuLV Reverse Transcriptase (Applied Biosystems). Gene expression was analyzed using SensiFAST SYBR Hi-ROX Kit (Bioline) on a StepOnePlus 96 well Real-Time PCR System (Applied Biosystems). […] Expression of each gene was calculated relative to the housekeeping gene 18S as 2^−ΔCt.

Data set [3] relates to Cyp7b1 mRNA. The data set can be described thus: quantitative real time RT-PCR of CSE treated airways: Cyp7b1. The class given is cell-based, mouse. Conditions: CSE treated airways dissected from C57BL/6 mice, 1 μM clotrimazole. As to the method: (§4) 1 ug RNA was reverse transcribed using Random Hexamers and MuLV Reverse Transcriptase (Applied Biosystems). Gene expression was analyzed using SensiFAST SYBR Hi-ROX Kit (Bioline) on a StepOnePlus 96 well Real-Time PCR System (Applied Biosystems). Primer sequences can be found in Table 1. Expression of each gene was calculated relative to the housekeeping gene HPRT1 or Hprt1 as 2^−[…]Ct.
as §1
(§5) B cells were purified from the spleens of C57BL/6J mice by negative selection (B cell Isolation Kit, mouse, Miltenyi Biotec). […] Migrated B cells were collected and counted by Neubauer Chamber and reported as percentage of input.

Data set [4] deals with Ch25h expression. As to the kind of experiment: gene expression after 10% CSE + LPS stimulation: Ch25h. It is filed as cell-based, mouse. Conditions: 10% CSE + 10 μg/mL LPS. As for the experimental part:
as §2, §3

Data set [5] concerns Ch25h mRNA. As to the kind of experiment: quantitative real time RT-PCR of CSE treated airways: Ch25h. The class given is cell-based, mouse. Conditions: CSE treated airways dissected from C57BL/6 mice, 1 μM clotrimazole. As for the experimental part:
as §4, §1, §5

Data set [6] has as its system C57BL/6 mice exposed to cigarette smoke. As to the kind of experiment: CS induced COPD model, clotrimazole therapeutic dosing. It is filed as in vivo, mouse. As for the experimental part:
Experimental design: In the early treatment group C57BL/6 mice were exposed to filtered air (FA) or cigarette smoke (CS) for 4 months and treated with clotrimazole (i.p. 80 mg/Kg 3 times per week) from months 2 to 4 or oil controls. In the late treatment group C57BL/6 mice were exposed to FA or CS for 6 months and treated with clotrimazole from months 4 to 6 or oil controls.
8-12 week old mice were used in all experiments. For the CS induced COPD model, mice were exposed to 100% mainstream CS (John et al., Clinical science 126, 207-221 (2014)) at a particle concentration of 500 mg/m^3, generated from 3R4F research cigarettes (Filter removed, Tobacco Research Institute, University of Kentucky), for 50 min twice/day, 5 days/week for 4 or 6 months. Mice exposed to filtered air were used as controls. For the elastase induced iBALT-independent COPD model, mice were instilled oropharyngeally with a single application of 80 U/Kg body weight Porcine Pancreatic Elastase (PPE) (Sigma Aldrich) in 80 μl PBS. Mice treated with 80 μl PBS were included as controls. For Cyp7b1 inhibition, clotrimazole (Sigma Aldrich) 10 mM in DMSO, was further diluted in Corn oil (Mazola, Unilever) and applied i.p. at a dose of 80 mg/Kg body weight 3 times/week for two months. Mice were treated after two or four months of CS exposure and smoked for a further two months in parallel with the clotrimazole treatment.
After lung function analysis lungs were lavaged with 3×500 ul aliquots of sterile PBS (Gibco, Life Technologies) supplemented with Complete Protease Inhibitor Cocktail tablets (Roche Diagnostics). Cells were pelleted at 400 g for 20 min and resuspended in 500 μl RPMI-1640 medium (Gibco, Life Technologies) for the total cell count using a Neubauer Chamber. Cytospins of the cell suspension were then prepared and stained using May-Grünwald-Giemsa for differential cell counting (200 cells/sample) using morphological criteria. BAL fluid was retained for mass spectrometry analysis.
H&E stained tissue sections were analyzed by design-based stereology using an Olympus BX51 light microscope equipped with the new Computer Assisted Stereological Toolbox (newCAST, Visiopharm) as described (John-Schuster et al., American journal of physiology. Lung cellular and molecular physiology 307, L692-706 (2014)), by readers blinded to the study groups. Briefly, for mean chord length (MCL) measurements, 20 frames were selected randomly across multiple sections by the software, using the ×20 objective, and superimposed by a line grid and points. The intercepts of lines on alveolar wall (Lsepta) and points localized on air space (Pair) were counted and calculated as MCL=ΣPair××L(p)/ΣLsepta×0.5, where L(p) is the line length per point. The volume of inflammation (V) was quantified in 50 frames, using the ×40 objective, by counting points hitting inflammatory cell zones (Pinflam). For calculation, the Pinflam were referenced to intercepts of lines with both airways and vessels (Iairway/vessel): V=ΣPinflam×L(p)/ΣIairway/vessel. Further, airway, vessel or septum associated inflammation quantification was classified by the location of the inflammation, and was calculated referring to intercept of lines with airway, vessel, or both, respectively.

The subject of data set [7] is Cyp7b1 expression. The data set can be described thus: gene expression after 10% CSE + LPS stimulation: Cyp7b1. It is filed as cell-based, mouse. The settings on record: 10% CSE + 10 μg/mL LPS. As for the experimental part:
as §2, §3

[8] abbreviates: early and late treatment groups, i.p. 80 mg/Kg 3 times per week.
Setting [9] is: early treatment: CS 4 months, i.p. 80 mg/Kg 3 times per week from months 2 to 4.
The mark [10] stands for this setting: late treatment: CS 6 months, i.p. 80 mg/Kg 3 times per week from months 4 to 6.

With `CC(C)(C(=O)c1cccnc1)c1cccnc1` [Metyrapone, 2-methyl-1,2-di(pyridin-3-yl)propan-1-one], the “migration of activated B cells towards culture supernatant from CSE-treated airways” value (shortened to “migration”) in data set [1] (compound 1 μM) is listed as “impaired B cell migration”.
For `Clc1ccccc1C(c1ccccc1)(c1ccccc1)n1ccnc1` [clotrimazole, 1-[(2-Chlorophenyl)(diphenyl)methyl]-1H-imidazole], the “induction of Tnf (TNFα) expression” value in data set [2] is reported as “inhibited”. The “induction of Tnf (TNFα) expression” value in data set [2] (listed as Clotrimazole) is on record as “inhibits the gene expression”. In addition, the “migration” value in data set [1] (compound 1 μM) is reported as “significantly impaired the ability of activated B cells to migrate; also recorded: impairs B cell migration”. Besides, in data set [3], the “Cyp7b1 mRNA abundance” value was “sufficient to reduce Cyp7b1 mRNA expression”. Also, the “induction of Ch25h expression” value in data set [4] is “inhibited”. Also, in data set [4] (listed as Clotrimazole), the “induction of Ch25h expression” value is “inhibits the gene expression”. Besides, the “Ch25h mRNA abundance” value in data set [5] is on record as “did not affect Ch25h levels”. For the same molecule, in data set [6] (setting [8]), the “cigarette smoke-induced COPD” value was “protects against and reverses cigarette smoke-induced COPD”; the “lung inflammatory responses following exposure to chronic cigarette smoke” value is recorded as “does not attenuate lung inflammatory responses”. In data set [6] (setting [9]), the “emphysema development (mean chord length)” value is recorded as “lack of emphysema development”; the iBALT formation entry is recorded as “significantly reduced iBALT formation”; the lung volume entry was “no deterioration in lung volume”; the “lymphocyte cell numbers in BAL fluid” value is “reduced macrophage and lymphocyte cell numbers”. In addition, in data set [6] (setting [9]), the “macrophage cell numbers in BAL fluid” value was “reduced macrophage and lymphocyte cell numbers”. Moreover, in data set [6] (setting [10]), the “emphysema (mean chord length)” value is listed as “attenuated”, the iBALT result was “attenuated”, the lung volume entry is recorded as “reduced lung volume” and the “macrophage cell numbers in BAL fluid” value is recorded as “reduced macrophage cell numbers”. Besides, the “induction of Cyp7b1 expression” value in data set [7] is reported as “inhibited”. The “induction of Cyp7b1 expression” value in data set [7] (listed as Clotrimazole) was “inhibits the gene expression”.
As to `Clc1ccc(COC(Cn2ccnc2)c2ccc(Cl)cc2Cl)c(Cl)c1` (racemic) [Miconazole, (RS)-1-(2-(2,4-Dichlorobenzyloxy)-2-(2,4-dichlorophenyl)ethyl)-1H-imidazole], the “migration” value in data set [1] (compound 1 μM) is given as “impaired B cell migration”.
In the case of `CC(C)c1nc(CN(C)C(=O)N[C@H](C(=O)N[C@@H](Cc2ccccc2)C[C@H](O)[C@H](Cc2ccccc2)NC(=O)OCc2cncs2)C(C)C)cs1` [Ritonavir, 1,3-thiazol-5-ylmethyl N-[(2S,3S,5S)-3-hydroxy-5-[(2S)-3-methyl-2-{[methyl({[2-(propan-2-yl)-1,3-thiazol-4-yl]methyl})carbamoyl]amino}butanamido]-1,6-diphenylhexan-2-yl]carbamate], the “migration” value in data set [1] (compound 0.1 μM) and in data set [1] (compound 1 μM) was “impaired B cell migration” in each case.
